The values that follow are results of earlier work, collected in patent publication US20050058718A1, “Preparations for cigarette toxicity reduction, health enhancement, and addiction elimination” (priority 2003, published 2005).

Molecules are shown by their SMILES.

In data set [1] the test system is leukoderma in their mouths and throats. The settings on record: 3 ppm selenium in drinking water.
Another data set relates to cancer cells. The settings on record: cancer cells external of the human body treated by selenium.
[2] abbreviates: 1300 people, 200 ug selenium daily for five years.

For the molecule `[Se]` [selenium], the “delay of cancer formation versus control group” value in data set [1] is on record as “two more weeks”. Further, in the data set with cancer cells, the “decrease of carcinogenicity of cancer cells” value is recorded as 60%. In the data set with cancer incidence (setting [2]), the “reduction of large intestine and rectum cancer incidence” value is listed as 58%; the “reduction of lung cancer incidence” value is recorded as 46%; the “reduction of prostate cancer incidence” value is 63%. In addition, the “more chance to survive when sick from cancer” value with cancer incidence (selenium takers sick from cancer) is recorded as 50%.
